US20260262643A1, “HERBICIDAL BENZOXAZINES” (FMC CORPORATION, priority 2022, published 2026)

How the values were obtained:
wheat [1] = test: Test C postemergence; format: in vivo, Triticum aestivum; details: 10 days
Procedure, shortened: (§1)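 Seeds sown in loam soil–sand blend received a directed preemergence soil spray of test chemical in non-phytotoxic solvent with surfactant; postemergence plants (2–10 cm, one- to two-leaf stage) were sprayed with the same formulation. Greenhouse-held 10 days, then visually rated for injury versus untreated controls, 0 (no effect) to 100 (complete control).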

corn [2] = test: Test C postemergence; format: in vivo, Zea mays; details: 10 days
Procedure, shortened: as §1

soybean [3] = test: Test C postemergence; format: in vivo, Glycine max; details: 10 days
Procedure, shortened: as §1

kochia [4] = test: Test C preemergence; format: in vivo, Bassia scoparia; details: 0 to 100 scale (0 no effect, 100 complete control); for Kochia plant response rating: preemergence
Procedure, shortened: as §1

blackgrass [5] = test: Test C postemergence; format: in vivo, Alopecurus myosuroides; details: 10 days
Procedure, shortened: as §1

rice = test: Test D flooded paddy test; format: in vivo, Oryza sativa; details: 250 g ai/ha, applied to paddy water, visual rating after 13 to 14 days, scale 0 to 100 (0 no effect, 100 complete control)
Procedure, shortened: (§2)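 Post-flood water application at the 2-leaf stage; 3 cm flood depth kept constant; visual control rating 0–100 after 13–14 days greenhouse growth.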

ragweed [6] = test: Test C preemergence; format: in vivo, Ambrosia artemisiifolia; details: 0 to 100 scale (0 no effect, 100 complete control); for Ragweed plant response rating: preemergence
Procedure, shortened: as §1

oat, wild [7] = test: Test C preemergence; format: in vivo, Avena fatua; details: 0 to 100 scale (0 no effect, 100 complete control); for Oat, Wild plant response rating: preemergence
Procedure, shortened: as §1

kochia [8] = test: Test C postemergence; format: in vivo, Bassia scoparia; details: 10 days
Procedure, shortened: as §1

horseweed = test: Test C postemergence; format: in vivo, Erigeron canadensis; details: 10 days
Procedure, shortened: as §1

green foxtail [9] = test: Test C preemergence; format: in vivo, Setaria viridis; details: 0 to 100 scale (0 no effect, 100 complete control); for Foxtail, Green plant response rating: preemergence
Procedure, shortened: as §1

green foxtail [10] = test: Test C postemergence; format: in vivo, Setaria viridis; details: 10 days
Procedure, shortened: as §1

ryegrass, Italian [11] = test: Test C postemergence; format: in vivo, Lolium multiflorum; details: 10 days
Procedure, shortened: as §1

corn [12] = test: Test C preemergence; format: in vivo, Zea mays; details: 0 to 100 scale (0 no effect, 100 complete control); for Corn plant response rating: preemergence
Procedure, shortened: as §1

barnyardgrass [13] = test: Test D flooded paddy test; format: in vivo, Echinochloa crus-galli; details: 250 g ai/ha, applied to paddy water, visual rating after 13 to 14 days, scale 0 to 100 (0 no effect, 100 complete control)
Procedure, shortened: as §2

barnyardgrass [14] = test: Test C preemergence; format: in vivo, Echinochloa crusgalli; details: 0 to 100 scale (0 no effect, 100 complete control); for Plant response rating, Barnyardgrass: Preemergence, 500 g ai/ha, visual rating after 10 days; for Barnyardgrass plant response rating: Test C, preemergence, 125 g ai/ha
Procedure, shortened: as §1

pigweed, palmer [15] = test: Test C preemergence; format: in vivo, Amaranthus palmeri; details: 0 to 100 scale (0 no effect, 100 complete control); for Pigweed, Palmer plant response rating: preemergence
Procedure, shortened: as §1

ducksalad = test: Test D flooded paddy test; format: in vivo, Heteranthera limosa; details: 250 g ai/ha, applied to paddy water, visual rating after 13 to 14 days, scale 0 to 100 (0 no effect, 100 complete control)
Procedure, shortened: as §2

soybean [16] = test: Test C preemergence; format: in vivo, Glycine max; details: 0 to 100 scale (0 no effect, 100 complete control); for Soybean plant response rating: preemergence
Procedure, shortened: as §1

ragweed [17] = test: Test C postemergence; format: in vivo, Ambrosia artemisiifolia; details: 10 days
Procedure, shortened: as §1

sedge, umbrella = test: Test D flooded paddy test; format: in vivo, Cyperus difformis; details: 250 g ai/ha, applied to paddy water, visual rating after 13 to 14 days, scale 0 to 100 (0 no effect, 100 complete control)
Procedure, shortened: as §2

wheat [18] = test: Test C preemergence; format: in vivo, Triticum aestivum; details: 0 to 100 scale (0 no effect, 100 complete control); for Wheat plant response rating: preemergence
Procedure, shortened: as §1

blackgrass [19] = test: Test C preemergence; format: in vivo, Alopecurus myosuroides; details: 0 to 100 scale (0 no effect, 100 complete control); for Plant response rating, Blackgrass: Preemergence, 500 g ai/ha, visual rating after 10 days; for Blackgrass plant response rating: Test C, preemergence, 125 g ai/ha
Procedure, shortened: as §1

barnyardgrass [20] = test: Test C postemergence; format: in vivo, Echinochloa crusgalli; details: 10 days
Procedure, shortened: as §1

galium = test: Test C postemergence; format: in vivo, Galium aparine; details: 10 days
Procedure, shortened: as §1

oat, wild [21] = test: Test C postemergence; format: in vivo, Avena fatua; details: 10 days
Procedure, shortened: as §1

ryegrass, Italian [22] = test: Test C preemergence; format: in vivo, Lolium multiflorum; details: 0 to 100 scale (0 no effect, 100 complete control); for Ryegrass, Italian plant response rating: preemergence
Procedure, shortened: as §1

pigweed, palmer [23] = test: Test C postemergence; format: in vivo, Amaranthus palmeri; details: 10 days
Procedure, shortened: as §1

[24] = 125 g ai/ha, postemergence, 0 to 100 scale, 0 no effect, 100 complete control
[25] = Postemergence, 500 g ai/ha, visual 0 to 100 scale (0 no effect, 100 complete control)
[26] = Preemergence, 500 g ai/ha, visual rating after 10 days

Cc1cc(-n2cnc(C(C)C)n2)cc(C(=O)N2C[C@H](C)Oc3c(Cl)cccc32)c1Cl [Compound 220]
70: Plant response rating, Oat, Wild (oat, wild [7]; [26]) | Plant response rating, Kochia (kochia [8]; [24]) | Plant response rating, Ryegrass, Italian (ryegrass, Italian [11]; [25]) | Plant response rating, Wheat (wheat [18]; [26]) | Plant response rating, Blackgrass (blackgrass [19])
0: Plant response rating, Rice (Flood) (rice) | Plant response rating, Ragweed (ragweed [6]; [26]) | Ragweed plant response rating (ragweed [6]; Test C, 125 g ai/ha) | Corn plant response rating (corn [12]; Test C, 125 g ai/ha) | Plant response rating, Barnyardgrass (Flood) (barnyardgrass [13]) | Plant response rating, Ducksalad (Flood) (ducksalad) | Soybean plant response rating (soybean [16]; Test C, 125 g ai/ha) | Plant response rating, Ragweed (ragweed [17]; [24]) | Plant response rating, Ragweed (ragweed [17]; [25]) | Plant response rating, Sedge, Umbrella (Flood) (sedge, umbrella) | Plant response rating, Oat, Wild (oat, wild [21]; [24]) | Plant response rating, Oat, Wild (oat, wild [21]; [25])
30: Plant response rating, Horseweed (horseweed; [25]) | Plant response rating, Ryegrass, Italian (ryegrass, Italian [11]; [24]) | Plant response rating, Barnyardgrass (barnyardgrass [20]; [24])
10: Plant response rating, Corn (corn [2]; [24]) | Plant response rating, Corn (corn [12]; [26])
60: Oat, Wild plant response rating (oat, wild [7]; Test C, 125 g ai/ha) | Plant response rating, Horseweed (horseweed; [24])
80: Kochia plant response rating (kochia [4]; Test C, 125 g ai/ha) | Plant response rating, Barnyardgrass (barnyardgrass [14]) | Plant response rating, Soybean (soybean [16]; [26]) | Ryegrass, Italian plant response rating (ryegrass, Italian [22]; Test C, 125 g ai/ha)
50: Plant response rating, Blackgrass (blackgrass [5]; [25]) | Plant response rating, Foxtail, Green (green foxtail [10]; [25]) | Barnyardgrass plant response rating (barnyardgrass [14])
20: Plant response rating, Wheat (wheat [1]; [24]) | Plant response rating, Wheat (wheat [1]; [25]) | Plant response rating, Corn (corn [2]; [25]) | Plant response rating, Foxtail, Green (green foxtail [10]; [24]) | Wheat plant response rating (wheat [18]; Test C, 125 g ai/ha)
90: Plant response rating, Kochia (kochia [4]; [26]) | Plant response rating, Kochia (kochia [8]; [25]) | Pigweed, Palmer plant response rating (pigweed, palmer [15]; Test C, 125 g ai/ha) | Plant response rating, Barnyardgrass (barnyardgrass [20]; [25]) | Plant response rating, Ryegrass, Italian (ryegrass, Italian [22]; [26]) | Plant response rating, Pigweed, Palmer (pigweed, palmer [23]; [24])
100: Plant response rating, Soybean (soybean [3]; [24]) | Plant response rating, Soybean (soybean [3]; [25]) | Plant response rating, Foxtail, Green (green foxtail [9]; [26]) | Foxtail, Green plant response rating (green foxtail [9]; Test C, 125 g ai/ha) | Plant response rating, Pigweed, Palmer (pigweed, palmer [15]; [26]) | Plant response rating, Galium (galium; [24]) | Plant response rating, Galium (galium; [25]) | Plant response rating, Pigweed, Palmer (pigweed, palmer [23]; [25])
40: Plant response rating, Blackgrass (blackgrass [5]; [24]) | Blackgrass plant response rating (blackgrass [19])

COC[C@H]1CN(C(=O)c2cc(-n3cnc(C4CC4)n3)ccc2C)c2cccc(Cl)c2O1 [Compound 266]
30: Ragweed plant response rating (ragweed [6]; 500 g ai/ha) | Wheat plant response rating (wheat [18]; Test C, 125 g ai/ha) | Blackgrass plant response rating (blackgrass [19])
0: Ragweed plant response rating (ragweed [6]; Test C, 125 g ai/ha) | Plant response rating, Barnyardgrass (Flood) (barnyardgrass [13])
75: Plant response rating, Ducksalad (Flood) (ducksalad)
50: Plant response rating, Blackgrass (blackgrass [5]; [24]) | Barnyardgrass plant response rating (barnyardgrass [14])
80: Plant response rating, Blackgrass (blackgrass [5]; [25]) | Plant response rating, Kochia (kochia [8]; [24]) | Plant response rating, Horseweed (horseweed; [25]) | Plant response rating, Barnyardgrass (barnyardgrass [14]) | Soybean plant response rating (soybean [16]; Test C, 125 g ai/ha) | Ryegrass, Italian plant response rating (ryegrass, Italian [22]; Test C, 125 g ai/ha)
95: Plant response rating, Sedge, Umbrella (Flood) (sedge, umbrella)
40: Oat, Wild plant response rating (oat, wild [7]; Test C, 125 g ai/ha) | Corn plant response rating (corn [12]; 500 g ai/ha)
20: Plant response rating, Wheat (wheat [1]; [24]) | Plant response rating, Horseweed (horseweed; [24]) | Corn plant response rating (corn [12]; Test C, 125 g ai/ha)
10: Plant response rating, Oat, Wild (oat, wild [21]; [24])
60: Plant response rating, Blackgrass (blackgrass [19])
90: Kochia plant response rating (kochia [4]; 500 g ai/ha) | Kochia plant response rating (kochia [4]; Test C, 125 g ai/ha) | Oat, Wild plant response rating (oat, wild [7]; 500 g ai/ha) | Plant response rating, Foxtail, Green (green foxtail [10]; [24]) | Plant response rating, Foxtail, Green (green foxtail [10]; [25]) | Plant response rating, Barnyardgrass (barnyardgrass [20]; [25]) | Ryegrass, Italian plant response rating (ryegrass, Italian [22]; 500 g ai/ha) | Plant response rating, Pigweed, Palmer (pigweed, palmer [23]; [24])
15: Plant response rating, Rice (Flood) (rice)
70: Plant response rating, Corn (corn [2]; [24]) | Plant response rating, Corn (corn [2]; [25]) | Plant response rating, Ryegrass, Italian (ryegrass, Italian [11]; [24]) | Plant response rating, Ragweed (ragweed [17]; [24]) | Wheat plant response rating (wheat [18]; 500 g ai/ha) | Plant response rating, Barnyardgrass (barnyardgrass [20]; [24])
100: Plant response rating, Soybean (soybean [3]; [24]) | Foxtail, Green plant response rating (green foxtail [9]; 500 g ai/ha) | Foxtail, Green plant response rating (green foxtail [9]; Test C, 125 g ai/ha) | Pigweed, Palmer plant response rating (pigweed, palmer [15]; 500 g ai/ha) | Pigweed, Palmer plant response rating (pigweed, palmer [15]; Test C, 125 g ai/ha) | Soybean plant response rating (soybean [16]; 500 g ai/ha) | Plant response rating, Galium (galium; [24]) | Plant response rating, Galium (galium; [25])
